Laboratory results taken from ChEMBL document CHEMBL1909046, “DrugMatrix in vitro pharmacology data”.

Key:
[1] = DRUGMATRIX: beta-Lactamase enzyme inhibition (substrate: Nitrocefin); design: species or system Bacillus cereus; conditions: Not Active = under 50% inhibition at 10 µM
[2] = biological target: T1, C-C chemokine receptor type 4 (Homo sapiens, UniProt P51679); format: cell membranes, Membrane; conditions: chem-1; also: in other assays of this panel Not Active means under 50% inhibition at 10 µM
T1 sequence (P51679 whole entry): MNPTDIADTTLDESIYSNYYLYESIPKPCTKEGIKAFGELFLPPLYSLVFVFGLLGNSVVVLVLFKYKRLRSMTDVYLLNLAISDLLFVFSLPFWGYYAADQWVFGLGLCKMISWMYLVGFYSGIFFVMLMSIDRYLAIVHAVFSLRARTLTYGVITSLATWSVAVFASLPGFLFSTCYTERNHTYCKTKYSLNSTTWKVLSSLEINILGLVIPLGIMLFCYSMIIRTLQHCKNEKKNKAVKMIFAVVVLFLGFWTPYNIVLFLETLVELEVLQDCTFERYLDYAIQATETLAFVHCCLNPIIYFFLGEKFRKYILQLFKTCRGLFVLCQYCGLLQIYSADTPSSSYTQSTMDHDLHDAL

[3] = biological target: D(3) dopamine receptor (Homo sapiens, UniProt P35462); test: DRUGMATRIX: Dopamine D3 radioligand binding (ligand: [3H] Spiperone); format: cell membranes, CHO, Membrane
[4] = biological target: Histamine H2 receptor (Homo sapiens, UniProt P25021); format: cell membranes, CHO-K1, Membrane; conditions: for Ki: read-out: Ki; as to all read-outs here: in other assays of this panel Not Active means under 50% inhibition at 10 µM
[5] = biological target: Melanocortin receptor 3 (Homo sapiens, UniProt P41968); format: cell membranes, Membrane; conditions: hek293; also: in other assays of this panel Not Active means under 50% inhibition at 10 µM
[6] = biological target: Melanocortin receptor 5 (Homo sapiens, UniProt P33032); format: cell membranes, Membrane; conditions: hek293; also: in other assays of this panel Not Active means under 50% inhibition at 10 µM
[7] = biological target: cGMP-specific 3',5'-cyclic phosphodiesterase (Homo sapiens, UniProt O76074); test: DRUGMATRIX: Phosphodiesterase PDE5 enzyme inhibition (substrate: [3H]cGMP + cGMP); format: tissue-based; conditions: platelet; Not Active = under 50% inhibition at 10 µM
[8] = biological target: T2, Interstitial collagenase (Homo sapiens, UniProt P03956); test: biochemical; format: tissue-based, Rheumatoid synovial fibroblasts
T2 sequence (P03956 whole entry): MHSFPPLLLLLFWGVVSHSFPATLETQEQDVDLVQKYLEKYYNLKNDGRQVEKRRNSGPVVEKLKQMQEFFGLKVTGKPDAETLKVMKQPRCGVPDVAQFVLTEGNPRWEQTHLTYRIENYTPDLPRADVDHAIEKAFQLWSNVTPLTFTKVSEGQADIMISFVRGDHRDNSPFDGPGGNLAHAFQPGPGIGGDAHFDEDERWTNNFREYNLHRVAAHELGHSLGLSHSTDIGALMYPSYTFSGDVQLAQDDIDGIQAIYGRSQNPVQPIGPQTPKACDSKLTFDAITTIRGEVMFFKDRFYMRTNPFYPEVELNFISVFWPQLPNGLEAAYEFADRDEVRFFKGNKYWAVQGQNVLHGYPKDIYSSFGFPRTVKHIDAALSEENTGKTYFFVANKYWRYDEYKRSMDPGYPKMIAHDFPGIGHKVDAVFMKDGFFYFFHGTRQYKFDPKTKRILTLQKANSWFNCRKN

[9] = biological target: Protein kinase C alpha type (Homo sapiens, UniProt P17252); format: cell-based; conditions: sf9
[10] = biological target: Tyrosine-protein kinase Fyn (Homo sapiens, UniProt P06241); test: biochemical; format: cell-based, Insect cells
[11] = DRUGMATRIX: Purinergic P2X radioligand binding (ligand: [3H] alpha, beta-Methylene-ATP); format: cell membranes, Oryctolagus cuniculus, New Zealand albino, Urinary bladder, Membrane; conditions: Not Active = under 50% inhibition at 10 µM
[12] = biological target: T3, 5-hydroxytryptamine receptor 1A (Rattus norvegicus, UniProt P19327); format: cell membranes, Membrane; conditions: cho-k1; also: in other assays of this panel Not Active means under 50% inhibition at 10 µM
T3 sequence (P19327 whole entry): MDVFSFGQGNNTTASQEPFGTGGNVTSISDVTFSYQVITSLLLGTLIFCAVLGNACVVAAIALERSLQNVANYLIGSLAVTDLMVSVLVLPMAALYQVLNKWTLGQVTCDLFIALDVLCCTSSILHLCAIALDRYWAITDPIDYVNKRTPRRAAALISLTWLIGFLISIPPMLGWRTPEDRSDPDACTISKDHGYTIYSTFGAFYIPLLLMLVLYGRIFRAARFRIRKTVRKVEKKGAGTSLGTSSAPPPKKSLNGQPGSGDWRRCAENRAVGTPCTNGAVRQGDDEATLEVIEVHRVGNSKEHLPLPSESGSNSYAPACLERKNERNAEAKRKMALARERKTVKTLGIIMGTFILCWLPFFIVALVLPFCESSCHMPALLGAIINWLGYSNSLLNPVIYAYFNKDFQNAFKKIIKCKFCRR

Tyrosine-protein kinase Fyn, sequence (P06241 whole entry): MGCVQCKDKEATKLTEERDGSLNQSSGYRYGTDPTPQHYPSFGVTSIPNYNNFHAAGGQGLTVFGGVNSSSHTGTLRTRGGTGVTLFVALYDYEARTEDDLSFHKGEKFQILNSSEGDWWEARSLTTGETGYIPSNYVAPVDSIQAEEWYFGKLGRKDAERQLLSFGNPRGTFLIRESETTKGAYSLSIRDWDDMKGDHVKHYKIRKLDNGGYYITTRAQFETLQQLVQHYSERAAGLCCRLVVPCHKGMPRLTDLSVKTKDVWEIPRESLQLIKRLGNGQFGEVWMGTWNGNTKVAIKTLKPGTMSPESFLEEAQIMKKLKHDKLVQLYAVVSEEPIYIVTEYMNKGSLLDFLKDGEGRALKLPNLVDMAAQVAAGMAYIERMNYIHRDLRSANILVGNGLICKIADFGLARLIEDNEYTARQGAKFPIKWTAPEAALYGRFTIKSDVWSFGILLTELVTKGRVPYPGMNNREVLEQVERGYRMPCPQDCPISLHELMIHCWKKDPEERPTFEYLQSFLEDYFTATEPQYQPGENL
Melanocortin receptor 3, sequence (P41968 whole entry): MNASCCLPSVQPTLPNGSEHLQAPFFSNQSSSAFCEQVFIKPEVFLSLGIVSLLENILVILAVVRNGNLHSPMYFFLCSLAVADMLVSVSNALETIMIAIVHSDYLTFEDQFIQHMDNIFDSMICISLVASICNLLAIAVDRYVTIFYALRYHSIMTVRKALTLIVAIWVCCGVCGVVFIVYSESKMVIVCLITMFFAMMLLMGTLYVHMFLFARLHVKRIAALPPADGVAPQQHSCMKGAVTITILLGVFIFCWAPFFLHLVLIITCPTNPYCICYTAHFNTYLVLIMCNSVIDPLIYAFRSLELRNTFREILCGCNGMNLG
Histamine H2 receptor, sequence (P25021 whole entry): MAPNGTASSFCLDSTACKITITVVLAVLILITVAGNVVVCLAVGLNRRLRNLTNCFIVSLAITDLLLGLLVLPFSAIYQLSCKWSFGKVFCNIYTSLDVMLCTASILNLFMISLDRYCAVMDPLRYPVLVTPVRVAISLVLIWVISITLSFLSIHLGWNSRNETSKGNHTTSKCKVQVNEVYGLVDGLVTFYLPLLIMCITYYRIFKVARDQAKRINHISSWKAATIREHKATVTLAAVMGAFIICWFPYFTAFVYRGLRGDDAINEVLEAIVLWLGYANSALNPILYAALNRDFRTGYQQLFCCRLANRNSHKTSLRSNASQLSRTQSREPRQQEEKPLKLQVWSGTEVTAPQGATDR
Melanocortin receptor 5, sequence (P33032 whole entry): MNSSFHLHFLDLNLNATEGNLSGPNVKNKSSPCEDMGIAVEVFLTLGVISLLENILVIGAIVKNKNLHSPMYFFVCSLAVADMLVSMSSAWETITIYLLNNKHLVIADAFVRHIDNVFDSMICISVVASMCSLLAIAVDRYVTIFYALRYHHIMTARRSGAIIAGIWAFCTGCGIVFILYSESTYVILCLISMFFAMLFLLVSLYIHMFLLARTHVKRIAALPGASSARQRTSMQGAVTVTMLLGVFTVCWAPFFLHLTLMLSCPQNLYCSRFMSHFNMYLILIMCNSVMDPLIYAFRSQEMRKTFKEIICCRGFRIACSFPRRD
D(3) dopamine receptor, sequence (P35462 whole entry): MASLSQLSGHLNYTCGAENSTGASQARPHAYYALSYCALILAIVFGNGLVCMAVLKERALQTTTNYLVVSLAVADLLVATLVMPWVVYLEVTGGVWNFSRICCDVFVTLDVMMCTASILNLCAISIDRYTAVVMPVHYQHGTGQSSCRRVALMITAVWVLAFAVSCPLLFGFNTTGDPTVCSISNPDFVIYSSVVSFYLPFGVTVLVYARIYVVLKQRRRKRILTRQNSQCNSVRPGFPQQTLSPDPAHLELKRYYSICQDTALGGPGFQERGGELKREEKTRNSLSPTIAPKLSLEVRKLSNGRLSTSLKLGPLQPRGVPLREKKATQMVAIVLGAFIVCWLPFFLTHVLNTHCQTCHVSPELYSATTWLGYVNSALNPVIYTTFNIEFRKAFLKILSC

| SMILES | IC50 [1] | Ki [1] | IC50 [2] | IC50 ([3]; cho) | IC50 ([4]; cho-k1) | IC50 [5] | IC50 [6] | IC50 [7] | IC50 [8] | IC50 [9] | IC50 ([10]; insect cells) | IC50 [11] | Ki [11] | IC50 [12] | IC50 ([4]; read-out: IC50) [µM] | Ki [4] [µM] | IC50 ([10]; read-out: IC50) [µM] | IC50 ([3]; read-out: IC50) [nM] | Ki ([3]; read-out: Ki) [nM] |
| --- | --- | --- | --- | --- | --- | --- | --- | --- | --- | --- | --- | --- | --- | --- | --- | --- | --- | --- | --- |
| CC1=C(CC(=O)O)c2cc(F)ccc2/C1=C\c1ccc([S+](C)[O-])cc1 (stereo not given) | Not Active | Not Active | Not Active | Not Active | Not Active | Not Active | Not Active | Not Active | Not Active | Not Active | Not Active | Not Active | Not Active | Not Active | – | – | – | – | – |
| N[C@H](CSC(=S)NCc1ccccc1)C(=O)O | Not Active | Not Active | Not Active | Not Active | Not Active | Not Active | Not Active | Not Active | Not Active | Not Active | Not Active | Not Active | Not Active | Not Active | – | – | – | – | – |
| CC(=O)N[C@@H]1[C@H](Oc2c3cc4cc2Oc2ccc(cc2Cl)[C@@H](O[C@@H]2O[C@@H](CO)[C@@H](O)[C@H](O)[C@@H]2NC(C)=O)[C@@H]2NC(=O)[C@H](NC(=O)[C@@H]4NC(=O)[C@H]4NC(=O)[C@@H](Cc5ccc(c(Cl)c5)O3)NC(=O)[C@H](N)c3ccc(O)c(c3)Oc3cc(O)cc4c3)c3ccc(O)c(c3)-c3c(O[C@H]4O[C@H](CO)[C@@H](O)[C@@H](O)[C@@H]4O)cc(O)cc3[C@@H](C(=O)O)NC2=O)O[C@@H](CO)[C@@H](O)[C@@H]1O | Not Active | Not Active | Not Active | Not Active | Not Active | Not Active | Not Active | Not Active | Not Active | Not Active | Not Active | Not Active | Not Active | Not Active | – | – | – | – | – |
| Clc1ccc2c(c1)C(N1CCNCC1)=Nc1ccccc1O2 [AMOXAPINE] | – | – | Not Active | – | Not Active | Not Active | Not Active | Not Active | Not Active | Not Active | Not Active | – | – | Not Active | – | – | – | – | – |
| COc1cc2c(c(OC)c1OC)-c1ccc(OC)c(=O)cc1[C@@H](NC(C)=O)CC2 [COLCHICINE] | – | – | Not Active | Not Active | Not Active | Not Active | Not Active | Not Active | Not Active | Not Active | Not Active | – | – | Not Active | – | – | – | – | – |
| CN1CCC(=C2c3ccccc3C=Cc3ccccc32)CC1 [CYPROHEPTADINE] | – | – | Not Active | – | – | Not Active | Not Active | Not Active | Not Active | Not Active | Not Active | – | – | – | 0.198 | 0.195 | – | – | – |
| CC/C(=C(/CC)c1ccc(O)cc1)c1ccc(O)cc1 [DIETHYLSTILBESTROL] | – | – | Not Active | – | Not Active | Not Active | Not Active | Not Active | Not Active | Not Active | – | – | – | Not Active | – | – | 14.2 | – | – |
| CC(=O)N1CCN(c2ccc(OCC3COC(Cn4ccnc4)(c4ccc(Cl)cc4Cl)O3)cc2)CC1 (stereo not given) [KETOCONAZOLE] | Not Active | Not Active | Not Active | Not Active | – | Not Active | Not Active | Not Active | Not Active | Not Active | Not Active | Not Active | Not Active | Not Active | 21.9 | 21.5 | – | – | – |
| C=CCN1CC[C@]23c4c5ccc(O)c4O[C@H]2C(=O)CC[C@@]3(O)[C@H]1C5 [NALOXONE] | – | – | Not Active | Not Active | Not Active | Not Active | Not Active | Not Active | Not Active | Not Active | Not Active | – | – | Not Active | – | – | – | – | – |
| COCCOC(=O)C1=C(C)NC(C)=C(C(=O)OC(C)C)C1c1cccc([N+](=O)[O-])c1 (stereo not given) [NIMODIPINE] | Not Active | Not Active | Not Active | Not Active | Not Active | Not Active | Not Active | Not Active | Not Active | Not Active | Not Active | Not Active | Not Active | Not Active | – | – | – | – | – |
| CC(C)NCC(O)COc1cccc2ccccc12 (stereo not given) [PROPRANOLOL] | – | – | Not Active | Not Active | Not Active | Not Active | Not Active | Not Active | Not Active | Not Active | Not Active | – | – | – | – | – | – | – | – |
| COCCCOc1ccnc(C[S+]([O-])c2nc3ccccc3[nH]2)c1C (stereo not given) [RABEPRAZOLE] | Not Active | Not Active | Not Active | – | Not Active | Not Active | Not Active | Not Active | Not Active | Not Active | Not Active | Not Active | Not Active | Not Active | – | – | – | 2330 | 790 |
| O=C(c1ccc(OCCN2CCCCC2)cc1)c1c(-c2ccc(O)cc2)sc2cc(O)ccc12 [RALOXIFENE] | Not Active | Not Active | Not Active | – | Not Active | Not Active | Not Active | Not Active | Not Active | Not Active | – | Not Active | Not Active | Not Active | – | – | 3.67 | – | – |
| CNC(=C[N+](=O)[O-])NCCSCc1ccc(CN(C)C)o1 [RANITIDINE] | Not Active | Not Active | Not Active | Not Active | Not Active | Not Active | Not Active | Not Active | Not Active | Not Active | Not Active | Not Active | Not Active | Not Active | – | – | – | – | – |
| CO[C@H]1/C=C/O[C@@]2(C)Oc3c(C)c(O)c4c(c3C2=O)C2=NC3(CCN(CC(C)C)CC3)NC2=C(NC(=O)/C(C)=C\C=C\[C@H](C)[C@H](O)[C@@H](C)[C@@H](O)[C@@H](C)[C@H](OC(C)=O)[C@@H]1C)C4=O [RIFABUTIN] | Not Active | Not Active | Not Active | Not Active | Not Active | Not Active | Not Active | Not Active | Not Active | Not Active | Not Active | Not Active | Not Active | Not Active | – | – | – | – | – |
| CC(C)c1nc(CN(C)C(=O)N[C@H](C(=O)N[C@@H](Cc2ccccc2)C[C@H](O)[C@H](Cc2ccccc2)NC(=O)OCc2cncs2)C(C)C)cs1 [RITONAVIR] | Not Active | Not Active | Not Active | Not Active | Not Active | Not Active | Not Active | Not Active | Not Active | Not Active | Not Active | Not Active | Not Active | Not Active | – | – | – | – | – |
| CC(C)(C)c1ccc(C(O)CCCN2CCC(C(O)(c3ccccc3)c3ccccc3)CC2)cc1 (stereo not given) [TERFENADINE] | Not Active | Not Active | Not Active | – | Not Active | Not Active | Not Active | Not Active | Not Active | Not Active | – | Not Active | Not Active | Not Active | – | – | 6.12 | – | – |
